pEC50: −log10 of the molar value.
Assays:
[1] = (§1) HIV Cell Culture Assay: MT-2 cells and 293T cells were obtained from the NIH AIDS Research and Reference Reagent Program. MT-2 cells were propagated in RPMI 1640 media supplemented with 10% heat-inactivated fetal bovine serum, […]. The 293T cells were propagated in DMEM media supplemented with 10% heat-inactivated fetal bovine serum (FBS), 100 units/mL penicillin G and 100 μg/mL streptomycin. The proviral DNA clone of NL4-3 was obtained from the NIH AIDS Research and Reference Reagent Program. A recombinant NL4-3 virus, in which a section of the nef gene from NL4-3 was replaced with the Renilla luciferase gene, was used as a reference virus. In addition, residue Gag P373 was converted to P373S. Briefly, the recombinant virus was prepared by transfection of the altered proviral clone of NL4-3. Transfections were performed in 293T cells using LipofectAMINE PLUS from Invitrogen (Carlsbad, Calif.), according to manufacturer's instruction. The virus was titered in MT-2 cells using luciferase enzyme activity as a marker. Luciferase was quantitated using the Dual Luciferase kit from Promega (Madison, Wis.), with modifications to the manufacturer's protocol. The diluted Passive Lysis solution was pre-mixed with the re-suspended Luciferase Assay Reagent and the re-suspended Stop & Glo Substrate (2:1:1 ratio). Fifty (50) μL of the mixture was added to each aspirated well on assay plates and luciferase activity was measured immediately on a Wallac TriLux (Perkin-Elmer). Antiviral activities of inhibitors toward the recombinant virus were quantified by measuring luciferase activity in cells infected for 4-5 days with NLRluc recombinants in the presence serial dilutions of the inhibitor.; assay type: cell-based
[2] = as §1; assay type: cell-based; remark: listed apart in the source

SMILES	pEC50 [1]	pEC50 [2]
C=C(C)[C@@H]1CC[C@]2(NCCC3(O)COC3)CC[C@]3(C)[C@H](CC[C@@H]4[C@@]5(C)CC=C(C6=CC[C@](CF)(C(=O)O)CC6)C(C)(C)[C@@H]5CC[C@]43C)[C@@H]12	> 7.30	< 7.30
C=C(C)[C@@H]1CC[C@]2(NCC[C@]3(O)CC[C@H](S(C)(=O)=O)CC3)CC[C@]3(C)[C@H](CC[C@@H]4[C@@]5(C)CC=C(C6=CC[C@](CF)(C(=O)O)CC6)C(C)(C)[C@@H]5CC[C@]43C)[C@@H]12	> 7.30	< 7.30
C=C(C)[C@@H]1CC[C@]2(NCCC3(O)COC3)CC[C@]3(C)[C@H](CC[C@@H]4[C@@]5(C)CC=C(C6=CC[C@@](CF)(C(=O)O)CC6)C(C)(C)[C@@H]5CC[C@]43C)[C@@H]12	> 7.30	< 7.30
C=C(C)[C@@H]1CC[C@]2(NCC[C@]3(O)CC[C@@H](S(C)(=O)=O)CC3)CC[C@]3(C)[C@H](CC[C@@H]4[C@@]5(C)CC=C(C6=CC[C@@](CF)(C(=O)O)CC6)C(C)(C)[C@@H]5CC[C@]43C)[C@@H]12	> 7.30	< 7.30
C=C(C)[C@@H]1CC[C@]2(NCCN3CCC(S(C)(=O)=O)CC3)CC[C@]3(C)[C@H](CC[C@@H]4[C@@]5(C)CC=C(C6=CCC(F)(OC=O)CC6)C(C)(C)[C@@H]5CC[C@]43C)[C@@H]12 (some centres not stated)	8.40	–
C=C(C)[C@@H]1CC[C@]2(NCCN3CCS(=O)(=O)CC(C)C3)CC[C@]3(C)[C@H](CC[C@@H]4[C@@]5(C)CC=C(C6=CC[C@](CF)(OC=O)CC6)C(C)(C)[C@@H]5CC[C@]43C)[C@@H]12 (some centres not stated)	> 7.30	< 7.30
C=C(C)[C@@H]1CC[C@]2(NCCN3CCS(=O)(=O)CC(C)C3)CC[C@]3(C)[C@H](CC[C@@H]4[C@@]5(C)CC=C(C6=CC[C@@](CF)(OC=O)CC6)C(C)(C)[C@@H]5CC[C@]43C)[C@@H]12 (some centres not stated)	> 7.30	< 7.30
C=C(C)[C@@H]1CC[C@]2(NCCN3CCS(=O)(=O)CC3C(=O)OCC)CC[C@]3(C)[C@H](CC[C@@H]4[C@@]5(C)CC=C(C6=CC[C@@](CF)(C(=O)O)CC6)C(C)(C)[C@@H]5CC[C@]43C)[C@@H]12 (some centres not stated)	> 7.30	> 7.30
C=C(C)[C@@H]1CC[C@]2(NCCN3CCS(=O)(=O)CC3)CC[C@]3(C)[C@H](CC[C@@H]4[C@@]5(C)CC=C(C6=CCC(C)(OC=O)CC6)C(C)(C)[C@@H]5CC[C@]43C)[C@@H]12 (some centres not stated)	8.70	–
C=C(C)[C@@H]1CC[C@]2(NCCC(O)(C3CC3)C3CC3)CC[C@]3(C)[C@H](CC[C@@H]4[C@@]5(C)CC=C(C6=CC[C@](CF)(C(=O)OCc7ccccc7)CC6)C(C)(C)[C@@H]5CC[C@]43C)[C@@H]12	> 7.30	< 7.30
CC(C)[C@@H]1CC[C@]2(NCCN3CCS(=O)(=O)CC3)CC[C@]3(C)[C@H](CC[C@@H]4[C@@]5(C)CC=C(C6CCC(CF)(C(=O)O)CC6)C(C)(C)[C@@H]5CC[C@]43C)[C@@H]12 (some centres not stated)	> 7.30	< 7.30
C=C(C)[C@@H]1CC[C@]2(NCCN3CCS(=O)(=O)CC3)CC[C@]3(C)[C@H](CC[C@@H]4[C@@]5(C)CC=C(C6=CCC(CF)(OC=O)CC6)C(C)(C)[C@@H]5CC[C@]43C)[C@@H]12 (some centres not stated)	8.70	6.68
C=C(C)[C@@H]1CC[C@]2(NCCN3CCS(=O)(=O)CC3)CC[C@]3(C)[C@H](CC[C@@H]4[C@@]5(C)CC=C(C6=CC[C@@](CF)(OC=O)CC6)C(C)(C)[C@@H]5CC[C@]43C)[C@@H]12	8.52	6.77
C=C(C)[C@@H]1CC[C@]2(NC(CN3CCS(=O)(=O)CC3)C(F)(F)F)CC[C@]3(C)[C@H](CC[C@@H]4[C@@]5(C)CC=C(C6=CC[C@](CF)(C(=O)O)CC6)C(C)(C)[C@@H]5CC[C@]43C)[C@@H]12 (some centres not stated)	< 7.30	< 7.30
C=C(C)[C@@H]1CC[C@]2(NCCN3CCS(=O)(=O)CC3)CC[C@]3(C)[C@H](CC[C@@H]4[C@@]5(C)CC=C(C6=CC[C@](CF)(OC=O)CC6)C(C)(C)[C@@H]5CC[C@]43C)[C@@H]12	8.70	6.11
C=C(C)[C@@H]1CC[C@]2(NCCN3CC(C)S(=O)(=O)C(C)C3)CC[C@]3(C)[C@H](CC[C@@H]4[C@@]5(C)CC=C(C6=CC[C@](CF)(OC=O)CC6)C(C)(C)[C@@H]5CC[C@]43C)[C@@H]12 (some centres not stated)	> 7.30	< 7.30
C=C(C)[C@@H]1CC[C@]2(NCCN3CC(C)S(=O)(=O)C(C)C3)CC[C@]3(C)[C@H](CC[C@@H]4[C@@]5(C)CC=C(C6=CC[C@@](CF)(OC=O)CC6)C(C)(C)[C@@H]5CC[C@]43C)[C@@H]12 (some centres not stated)	> 7.30	< 7.30

Reference: ChEMBL document CHEMBL5726774, “Triterpenoids with HIV maturation inhibitory activity” (2019)
